# Results published in patent US20060069132A1, “Azolecarboxamide herbicides” (priority 2004, published 2006).
# Tests used:
# [1] = test system: Surinam grass; assay: Test C pre-/postemergence herbicide test; assay type: in vivo, Urochloa decumbens
# Summary of the method: (§1)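 Seeds were planted and sprayed preemergence with test chemicals in a non-phytotoxic solvent mixture containing surfactant; postemergence treatments went onto plants 2 to 18 cm tall (1- to 4-leaf stage). After 12 to 14 days in a greenhouse, injury was rated visually against untreated controls on a 0–100 scale.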
# [2] = test system: cocklebur; assay: Test C pre-/postemergence herbicide test; assay type: in vivo, Xanthium strumarium; conditions: for Cocklebur plant response rating: Preemergence, 500 g ai/ha
# Summary of the method: as §1
# [3] = test system: giant foxtail; assay: Test C pre-/postemergence herbicide test; assay type: in vivo, Setaria faberi
# Summary of the method: as §1
# [4] = test system: johnsongrass; assay: Test C pre-/postemergence herbicide test; assay type: in vivo, Sorghum halepense
# Summary of the method: as §1
# [5] = test system: morningglory; assay: Test C pre-/postemergence herbicide test; assay type: in vivo, Ipomoea coccinea; parameters: key to Plant response rating, Morningglory: 0 = no effect, 100 = complete control
# Summary of the method: as §1
# [6] = test system: eastern black nightshade; assay: Test C pre-/postemergence herbicide test; assay type: in vivo, Solanum ptycanthum; conditions: preemergence
# Summary of the method: as §1
# [7] = test system: yellow nutsedge; assay: Test C pre-/postemergence herbicide test; assay type: in vivo, Cyperus esculentus
# Summary of the method: as §1
# [8] = test system: ducksalad; assay: Test C flooded paddy test; assay type: in vivo, Heteranthera limosa; conditions: for Plant response rating, Ducksalad: 500 g ai/ha, visual rating after 12 to 14 days
# [9] = test system: barnyardgrass; assay: Test C flooded paddy test; assay type: in vivo, Echinochloa crus-galli; conditions: for Plant response rating, Barnyardgrass: 500 g ai/ha, visual rating after 12 to 14 days
# Summary of the method: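 Plants were grown to the 1- to 4-leaf stage (2–18 cm) and then treated postemergence, or grown to the 2-leaf stage for the flooded paddy test. They were held in a greenhouse for 12 to 14 days and then scored by eye against controls, where 0 is no effect and 100 is complete control.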
# [10] = 62 g ai/ha, preemergence, scale 0 to 100
# [11] = 250 g ai/ha, scale 0-100, preemergence
# [12] = 500 g ai/ha, scale 0 to 100 (0 no effect, 100 complete control), visual, 12 to 14 days, preemergence
# [13] = 125 g ai/ha, scale 0 (no effect) to 100 (complete control), visual, 12 to 14 days, preemergence
# [14] = scale 0 to 100, 0 no effect, 100 complete control
# [15] = 125 g ai/ha, scale 0 (no effect) to 100 (complete control), visual, 12 to 14 days
# [16] = 500 g ai/ha, scale 0 to 100 (0 no effect, 100 complete control), visual, 12 to 14 days
# [17] = 62 g ai/ha, scale 0 to 100 (0 no effect, 100 complete control)
# [18] = 125 g ai/ha, scale 0 to 100 (0 no effect, 100 complete control)
# [19] = 250 g ai/ha, scale of 0 to 100, 0 is no effect, 100 is complete control
# [20] = scale 0 to 100 (0 no effect, 100 complete control)
# [21] = Postemergence, 500 g ai/ha, scale 0 to 100
# [22] = Postemergence, 250 g ai/ha, scale 0 to 100, 0 no effect, 100 complete control
# [23] = postemergence, 125 g ai/ha, scale 0 to 100
# [24] = postemergence, 62 g ai/ha, scale 0 to 100
smiles,measurement,setting,value
CCn1nc(C(C)(C)C)cc1C(=O)Nc1cc(C(=O)N2CCCC2)ccc1F [Compound 242],"Plant response rating, Surinam Grass",[1]; [10],85
same,"Plant response rating, Surinam Grass",[1]; [11],95
same,"Plant response rating, Surinam Grass",[1]; [12],100
same,"Plant response rating, Cocklebur",[2]; [10],0
same,"Plant response rating, Cocklebur",[2]; [13],0
same,"Plant response rating, Cocklebur",[2]; [11],35
same,Cocklebur plant response rating,[2]; [14],50
same,"Plant response rating, Foxtail, Giant",[3]; [10],85
same,"Plant response rating, Foxtail, Giant",[3]; [13],100
same,"Plant response rating, Foxtail, Giant",[3]; [11],100
same,"Plant response rating, Foxtail, Giant",[3]; [12],100
same,"Plant response rating, Johnsongrass",[4]; [10],65
same,"Plant response rating, Johnsongrass",[4]; [13],95
same,"Plant response rating, Johnsongrass",[4]; [11],100
same,"Plant response rating, Johnsongrass",[4]; [12],100
same,"Plant response rating, Morningglory",[5]; [10],0
same,"Plant response rating, Morningglory",[5]; [13],0
same,"Plant response rating, Morningglory",[5]; [11],0
same,"Plant response rating, Morningglory",[5]; [12],15
same,"Plant response rating, Nightshade","[6]; 62 g ai/ha, scale 0 to 100",100
same,"Plant response rating, Nightshade",[6]; [15],100
same,"Plant response rating, Nightshade","[6]; 250 g ai/ha, scale 0-100",100
same,"Plant response rating, Nightshade",[6]; [16],100
same,"Plant response rating, Nutsedge, Yellow",[7]; [10],0
same,"Plant response rating, Nutsedge, Yellow",[7]; [13],0
same,"Plant response rating, Nutsedge, Yellow",[7]; [11],15
same,"Plant response rating, Nutsedge, Yellow",[7]; [12],25
same,Ducksalad plant response rating,[8]; [17],65
same,Ducksalad plant response rating,[8]; [18],95
same,Ducksalad plant response rating,[8]; [19],95
same,"Plant response rating, Ducksalad",[8]; [20],95
same,Barnyardgrass plant response rating,[9]; [17],15
same,Barnyardgrass plant response rating,[9]; [18],75
same,Barnyardgrass plant response rating,[9]; [19],90
same,"Plant response rating, Barnyardgrass",[9]; [20],95
CCn1nc(C2(C)CC2)cc1C(=O)Nc1cccc(C(=O)N2CC=CC2)c1 [Compound 304],"Plant response rating, Surinam Grass",[1]; [10],0
same,"Plant response rating, Surinam Grass",[1]; [11],40
same,"Plant response rating, Surinam Grass",[1]; [12],85
same,"Plant response rating, Cocklebur",[2]; [10],0
same,"Plant response rating, Cocklebur",[2]; [13],0
same,"Plant response rating, Cocklebur",[2]; [11],0
same,Cocklebur plant response rating,[2]; [14],0
same,"Plant response rating, Foxtail, Giant",[3]; [10],5
same,"Plant response rating, Foxtail, Giant",[3]; [13],50
same,"Plant response rating, Foxtail, Giant",[3]; [11],60
same,"Plant response rating, Foxtail, Giant",[3]; [12],90
same,"Plant response rating, Johnsongrass",[4]; [10],0
same,"Plant response rating, Johnsongrass",[4]; [13],60
same,"Plant response rating, Johnsongrass",[4]; [11],70
same,"Plant response rating, Johnsongrass",[4]; [12],80
same,"Plant response rating, Morningglory",[5]; [10],0
same,"Plant response rating, Morningglory",[5]; [13],10
same,"Plant response rating, Morningglory",[5]; [11],10
same,"Plant response rating, Morningglory",[5]; [12],10
same,"Plant response rating, Nightshade","[6]; 62 g ai/ha, scale 0 to 100",80
same,"Plant response rating, Nightshade",[6]; [15],100
same,"Plant response rating, Nightshade","[6]; 250 g ai/ha, scale 0-100",100
same,"Plant response rating, Nightshade",[6]; [16],100
same,"Plant response rating, Nutsedge, Yellow",[7]; [10],0
same,"Plant response rating, Nutsedge, Yellow",[7]; [13],0
same,"Plant response rating, Nutsedge, Yellow",[7]; [11],0
same,"Plant response rating, Nutsedge, Yellow",[7]; [12],5
same,Ducksalad plant response rating,"[8]; 62 g ai/ha, scale 0 to 100",65
same,Ducksalad plant response rating,[8]; [18],85
same,Ducksalad plant response rating,[8]; [19],95
same,"Plant response rating, Ducksalad",[8]; [20],95
same,Barnyardgrass plant response rating,[9]; [17],40
same,Barnyardgrass plant response rating,[9]; [18],50
same,Barnyardgrass plant response rating,[9]; [19],85
same,"Plant response rating, Barnyardgrass",[9]; [20],95
CCn1nc(C(C)(C)C)cc1C(=O)Nc1cccc(OC(F)(F)C(F)F)c1 [Compound 333],"Plant response rating, Surinam Grass",[1]; [11],5
same,"Plant response rating, Surinam Grass",[1]; [12],20
same,Surinam Grass plant response rating,[1]; [21],10
same,"Plant response rating, Surinam Grass",[1]; [22],5
same,"Plant response rating, Surinam Grass",[1]; [23],5
same,"Plant response rating, Surinam Grass",[1]; [24],5
same,"Plant response rating, Cocklebur",[2]; [10],0
same,"Plant response rating, Cocklebur",[2]; [13],0
same,"Plant response rating, Cocklebur",[2]; [11],0
same,"Plant response rating, Cocklebur",[2]; [22],80
same,Cocklebur plant response rating,[2]; [14],5
same,"Plant response rating, Cocklebur",[2]; [23],5
same,"Plant response rating, Cocklebur",[2]; [24],0
same,"Plant response rating, Foxtail, Giant",[3]; [10],0
same,"Plant response rating, Foxtail, Giant",[3]; [13],10
same,"Plant response rating, Foxtail, Giant",[3]; [11],50
same,"Plant response rating, Foxtail, Giant",[3]; [12],75
same,"Foxtail, Giant plant response rating",[3]; [21],10
same,"Plant response rating, Foxtail, Giant",[3]; [22],10
same,"Plant response rating, Foxtail, Giant",[3]; [23],5
same,"Plant response rating, Foxtail, Giant",[3]; [24],5
same,"Plant response rating, Johnsongrass",[4]; [10],0
same,"Plant response rating, Johnsongrass",[4]; [13],0
same,"Plant response rating, Johnsongrass",[4]; [11],5
same,"Plant response rating, Johnsongrass",[4]; [12],5
same,Johnsongrass plant response rating,[4]; [21],0
same,"Plant response rating, Johnsongrass",[4]; [22],0
same,"Plant response rating, Johnsongrass",[4]; [23],0
same,"Plant response rating, Johnsongrass",[4]; [24],0
same,"Plant response rating, Morningglory",[5]; [10],0
same,"Plant response rating, Morningglory",[5]; [13],0
same,"Plant response rating, Morningglory",[5]; [11],0
same,"Plant response rating, Morningglory",[5]; [12],10
same,Morningglory plant response rating,[5]; [21],10
same,"Plant response rating, Morningglory",[5]; [22],10
same,"Plant response rating, Morningglory",[5]; [23],0
same,"Plant response rating, Morningglory",[5]; [24],0
same,"Plant response rating, Nightshade",[6]; [15],20
same,"Plant response rating, Nightshade","[6]; 250 g ai/ha, scale 0-100",98
same,"Plant response rating, Nightshade",[6]; [16],100
same,"Plant response rating, Nutsedge, Yellow",[7]; [10],0
same,"Plant response rating, Nutsedge, Yellow",[7]; [13],0
same,"Plant response rating, Nutsedge, Yellow",[7]; [11],0
same,"Plant response rating, Nutsedge, Yellow",[7]; [12],0
same,"Nutsedge, Yellow plant response rating",[7]; [21],0
same,"Plant response rating, Nutsedge, Yellow",[7]; [22],0
same,"Plant response rating, Nutsedge, Yellow",[7]; [23],0
same,"Plant response rating, Nutsedge, Yellow",[7]; [24],0
same,Ducksalad plant response rating,"[8]; 62 g ai/ha, scale 0 to 100",0
same,Ducksalad plant response rating,[8]; [18],0
same,Ducksalad plant response rating,[8]; [19],0
same,"Plant response rating, Ducksalad",[8]; [20],25
same,Barnyardgrass plant response rating,[9]; [17],0
same,Barnyardgrass plant response rating,[9]; [18],0
same,Barnyardgrass plant response rating,[9]; [19],10
same,"Plant response rating, Barnyardgrass",[9]; [20],20
